# Test results reported in patent US11884652B2, “Tetrazole derivatives as TRPA1 inhibitors” (Boehringer Ingelheim International GmbH, priority 2020, dated 2024).
# What was measured:
# [1] = Assay B: Microsomal clearance; type: in vitro ADME, human; settings: pooled liver microsomes 1 mg/ml, 1 μM compound, NADPH, 37° C.; clearance as % of hepatic blood flow
# Description: Assay B: Microsomal Clearance:
# The metabolic degradation of the test compound is assayed at 37° C. with pooled liver microsomes. The final incubation volume of 100 μl per time point contains TRIS buffer pH 7.6 at RT (0.1 M), magnesium chloride (5 mM), microsomal protein (1 mg/ml) and the test compound at a final concentration of 1 μM.
# Following a short preincubation period at 37° C., the reactions are initiated by addition of beta-nicotinamide adenine dinucleotide phosphate, reduced form (NADPH, 1 mM) and terminated by transferring an aliquot into solvent after different time points (0, 5, 15, 30, 60 min). Additionally, the NADPH-independent degradation is monitored in incubations without NADPH, terminated at the last time point. The [%] remaining test compound after NADPH independent incubation is reflected by the parameter c(control) (metabolic stability). The quenched incubations are pelleted by centrifugation (10000 g, 5 min).
# An aliquot of the supernatant is assayed by LC-MS/MS for the amount of parent compound. The half-life (t½ INVITRO) is determined by the slope of the semilogarithmic plot of the concentration-time profile.
# The intrinsic clearance (CL_[…]) is calculated by considering the amount of protein in the incubation: CL_[…] [μl/min/mg protein]=(Ln 2/(half-life [min]*protein content [mg/ml]))*1000 CL_[…]_INVIVO [ml/min/kg]=(CL_[…] [μL/min/mg protein]×MPPGL [mg protein/g liver]×liver factor [g/kg bodyweight])/1000 Qh[%]=CL[ml/min/kg]/hepatic blood flow [ml/min/kg])
# (§1) Hepatocellularity, human: 120×10e6 cells/g liver
# (§2) Liver factor, human: 25.7 g/kg bodyweight
# (§3) Blood flow, human: 21 ml/(min×kg)
# [2] = Assay C: Hepatocyte clearance; type: in vitro ADME, human; settings: hepatocyte suspension, 1 μM compound, 6 h; predicted clearance as % of hepatic blood flow
# Description: Assay C: Hepatocyte Clearance
# The metabolic degradation of the test compound is assayed in a hepatocyte suspension. Hepatocytes (cryopreserved) are incubated in Dulbecco's modified eagle medium (supplemented with 3.5 μg glucagon/500 mL, 2.5 mg insulin/500 mL and 3.75 mg/500 mL hydrocortison) containing 5% or 50% species serum.
# The cells are incubated for six hours (incubator, orbital shaker) and samples ([…]) are taken at 0, 0.5, 1, 2, 4 and 6 hours. Samples are transferred into acetonitrile and pelleted by centrifugation (5 min). The supernatant is transferred to a new 96-deepwell plate, evaporated under nitrogen and resuspended.
# Decline of Parent Compound is Analyzed by HPLC-MS/MS
# CLint is calculated as follows CL_[…]=Dose/AUC=(C0/CD)/(AUD+clast/k)×1000/60. C0: initial concentration in the incubation [μM], CD: cell density of vital cells [10e6 cells/mL], AUD: area under the data [μM×h], clast: concentration of last data point [μM], k: slope of the regression line for parent decline [h−1].
# The calculated in vitro hepatic intrinsic clearance can be scaled up to the intrinsic in vivo hepatic Clearance and used to predict hepatic in vivo blood clearance (CL) by the use of a liver model (well stirred model). CL_[…]_INVIVO [ml/min/kg]=(CL_[…] [μL/min/10e6 cells]×hepatocellularity [10e6 cells/g liver]×liver factor [g/kg bodyweight])/1000 CL[ml/min/kg]=CL_[…]_INVIVO [ml/min/kg]×hepatic blood flow [ml/min/kg]/(CL_[…]_INVIVO [ml/min/kg]+hepatic blood flow [ml/min/kg]) Qh[%]=CL[ml/min/kg]/hepatic blood flow [ml/min/kg])
# as §1, §2, §3
# [3] = biological target: T1, human TRPA1 ion channel (Homo sapiens, UniProt O75762); test: Assay A: TRPA1 assay (FLIPR, AITC-induced calcium, HEK293 cells); type: cell-based; settings: read-out: hTRPA1 IC50
# T1 construct: host or cells: HEK293
# Description: A human HEK293 cell line over-expressing the human TRPA1 ion channel (Perkin Elmer, Product No. AX-004-PCL) is used as a test system for compound efficacy and potency. Compound activity is determined by measuring the effect of compounds on intracellular calcium concentration induced by AITC (Allylisothiocyanat) agonism in a FLIPRtetra system (Molecular Devices).
# The cells are obtained as frozen cells in cryo-vials and stored until use at −150° C. Cells are grown in culture medium (MEM/EBSS medium with 10% FCS and 0.4 mg/ML Geneticin). […] For sub-culturing cells are detached from flasks by Versene. At the day before the assay, cells are detached, washed twice with medium (MEM/EBSS medium with 10% FCS) and 20000 cells in 20 μl/well are seeded to Poly D-Lysin biocoated 384-well plates (black, clear bottom, Cat. 356697) from Corning. Plates are incubated for 24 hours at 37° C./5% CO2 before use in the assay.
# The test compounds are dissolved in 100% DMSO at a concentration of 10 mM and in a first step diluted in DMSO to a concentration of 5 mM, followed by serial dilution steps in 100% DMSO. Dilution factor and number of dilution steps may vary according to needs. Typically 8 different concentrations by 1:5 dilutions are prepared, further intermediate dilutions (1:20) of the substances are carried out with HBSS/HEPES buffer (1×HEPES, Cat. 14065 from Gibco, 20 mM HEPES, Cat. 83264 from SIGMA, 0.1% BSA Cat. 11926 from Invitrogen, pH 7.4
# At the assay day cells are washed 3× with assay puffer, 20 μL buffer remaining in the wells after washing. 10 μL Ca6 kit (Cat. R8191 MolecularDevices) loading buffer in HBSS/HEPES is added to the cells and the plates are incubated with lid for 120 minutes at 37°/5% CO2. 10 μL of compound or controls in HBSS/HEPES buffer/5% DMSO from the intermediate dilution plate are carefully added to the wells. […] Finally 10 μL of the agonist AITC 50 μM dissolved in HBSS/HEPES buffer/0.05% DMSO (final concentration 10 μM) is added to the wells followed by an additional read on the FLIPRtetra device for 10 minutes. The area under the signal curve (AUC) after AITC addition is used for IC50/% inhibition calculations
# Data Evaluation and Calculation:
# Each assay microtiter plate contains wells with vehicle (1% DMSO) controls instead of compound as controls for AITC induced luminescence (100% CTL; high controls) and wells with vehicle controls without AITC as controls for non-specific changes in luminescence (0% CTL; low controls).
# The analysis of the data is performed by the calculation of the area under signal curve of the individual wells. Based on this values the % value for the measurement of each substance concentration is calculated (AUC(sample)−AUC(low))*100/(AUC(high)−AUC(low)) using MegaLab software (in house development). The IC50 values are calculated from the % control values using MegaLab software. Calculation: [y=(ad)/(1+(x/c)^b)+d], a=low value, d=high value; x=conc M; c=IC50 M; b=hill; y=% ctrl
# T1 sequence (O75762 whole entry): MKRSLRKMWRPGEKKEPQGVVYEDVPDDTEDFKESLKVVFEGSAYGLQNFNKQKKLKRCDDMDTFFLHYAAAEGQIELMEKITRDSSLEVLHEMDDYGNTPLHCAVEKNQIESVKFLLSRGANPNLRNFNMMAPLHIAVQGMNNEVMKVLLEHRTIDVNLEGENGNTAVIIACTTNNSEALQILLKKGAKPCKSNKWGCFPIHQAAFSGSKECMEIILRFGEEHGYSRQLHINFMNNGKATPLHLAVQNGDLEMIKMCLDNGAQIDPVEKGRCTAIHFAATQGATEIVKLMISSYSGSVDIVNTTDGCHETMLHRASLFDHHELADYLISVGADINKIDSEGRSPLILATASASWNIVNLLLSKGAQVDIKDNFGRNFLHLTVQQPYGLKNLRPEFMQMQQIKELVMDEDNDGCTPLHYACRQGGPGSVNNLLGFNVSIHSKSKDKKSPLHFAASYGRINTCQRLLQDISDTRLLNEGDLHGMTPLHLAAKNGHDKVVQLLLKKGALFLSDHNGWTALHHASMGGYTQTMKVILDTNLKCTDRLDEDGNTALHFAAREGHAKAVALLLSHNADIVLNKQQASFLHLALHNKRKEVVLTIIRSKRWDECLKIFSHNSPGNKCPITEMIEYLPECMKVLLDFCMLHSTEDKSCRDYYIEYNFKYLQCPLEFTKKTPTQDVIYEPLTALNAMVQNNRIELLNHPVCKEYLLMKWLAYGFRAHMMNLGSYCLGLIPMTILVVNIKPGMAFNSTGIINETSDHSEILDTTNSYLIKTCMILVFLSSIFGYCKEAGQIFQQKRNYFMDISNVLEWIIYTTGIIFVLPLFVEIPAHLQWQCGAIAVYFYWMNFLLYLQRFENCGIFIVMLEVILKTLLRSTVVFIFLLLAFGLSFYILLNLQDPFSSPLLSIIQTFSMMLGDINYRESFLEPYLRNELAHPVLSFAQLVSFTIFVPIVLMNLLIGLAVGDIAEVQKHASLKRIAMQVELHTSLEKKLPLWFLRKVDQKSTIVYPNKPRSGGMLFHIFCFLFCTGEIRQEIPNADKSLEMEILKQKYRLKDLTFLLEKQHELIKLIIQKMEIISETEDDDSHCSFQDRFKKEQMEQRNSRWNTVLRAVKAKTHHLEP
Structure (SMILES),human LM [% Qh] [1],human Hepatocytes [% Qh] [2],IC50 [3]
Cn1c(=O)c(C(=O)NCCOC(F)(F)F)cn(Cc2nnn(C[C@H](O)c3ccc(Cl)cc3)n2)c1=O [Example 30],28 % Qh,9 % Qh,44 nM
Cc1ccc([C@@H](O)Cn2nnc(Cn3cc(C(N)=O)c(=O)n(C)c3=O)n2)cc1 [Example 13],<23 % Qh,<4 % Qh,124 nM
Cn1c(=O)c(C(N)=O)cn(Cc2nnn(C[C@H](O)c3cc4cccc(F)c4o3)n2)c1=O [Example 15],<23 % Qh,14 % Qh,198 nM
COc1ccc([C@@H](O)Cn2nnc(Cn3cc(C(N)=O)c(=O)n(C)c3=O)n2)cc1 [Example 16],<23 % Qh,<4 % Qh,160 nM
"Cn1c(=O)c(C(N)=O)cn(Cc2nnn(C[C@H](O)c3ccc(Cl)cc3)n2)c1=O [Example 1, 1-({2-[(2R)-2-(4-chlorophenyl)-2-hydroxyethyl]-2H-1,2,3,4-tetrazol-5-yl}methyl)-3-methyl-2,4-dioxo-1,2,3,4-tetrahydropyrimidine-5-carboxamide]",<23 % Qh,<4 % Qh,40 nM
Cn1c(=O)c(C(=O)NCC(F)(F)F)cn(Cc2nnn(C[C@H](O)c3ccc(Cl)cc3)n2)c1=O [Example 31],<23 % Qh,4 % Qh,68 nM
Cn1c(=O)c(C(N)=O)cn(Cc2nnn(C[C@H](O)c3cc4cc(F)ccc4o3)n2)c1=O [Example 8],<23 % Qh,6 % Qh,59 nM
Cn1c(=O)c(C(=O)NCCS(C)(=O)=O)cn(Cc2nnn(C[C@H](O)c3ccc(Cl)cc3)n2)c1=O [Example 28],<23 % Qh,<4 % Qh,186 nM
CNC(=O)c1cn(Cc2nnn(C[C@H](O)c3ccc(Cl)cc3)n2)c(=O)n(C)c1=O [Example 27],<23 % Qh,17 % Qh,140 nM
Cn1c(=O)c(C(=O)NCC(F)F)cn(Cc2nnn(C[C@H](O)c3ccc(Cl)cc3)n2)c1=O [Example 23],<23 % Qh,15 % Qh,39 nM
